# Laboratory results as given in paper PMC12362796, “Bilirubin Targeting WNK1 to Alleviate NLRP3‐Mediated Neuroinflammation” (Advanced Science, 2025).
# How the values were obtained:
# [1] = system: LPS-induced NLRP3 inflammasome activation in hippocampus; test: LPS-induced inflammation model in mice, hippocampal NLRP3 inflammasome activation; assay type: in vivo, mouse
# Text: Furthermore, a murine model of infection‐induced inflammation was established in neonatal wild‐type, Blvra^−/− , and Ugt1a1^+/− mice by intraperitoneal administration of lipopolysaccharide (LPS) (Figure 5A).^[ [41], [42] ^] We assessed the expression levels of NLRP3 in the hippocampal region and the aggregation of the adaptor protein ASC in hippocampal neurons to indicate the level of inflammasome activation.^[ [43], [44] ^] We observed elevated NLRP3 expression (Figure 5B) and increased ASC aggregation in low‐bilirubin Blvra^−/− mice compared to wild‐type controls, whereas these parameters were reversed in high‐bilirubin Ugt1a1^+/− mice (Figure 5C,D). Additionally, Caspase‐1 enzyme activity decreased in high‐bilirubin mice (Figure 5E), supporting the inhibitory role of bilirubin in NLRP3 activation.
# Figure 5 Bilirubin‐WNK1 suppresses LPS‐induced NLRP3 activation in the mouse hippocampus. A) Diagram of the experimental design. LPS (0.6 µg g^−1) or normal saline (NS) was injected intraperitoneally (i.p.) for 5 consecutive days starting on day 7. Hippocampal tissues were harvested 6 h after last injection. B) Western blotting analysis of NLRP3 in hippocampal tissues from WT, Blvra^−/− , or Ugt1a1^+/− mice after LPS/saline treatment. C) Immunofluorescence staining of ASC speck formation in hippocampal tissues from WT, Blvra^−/− , or Ugt1a1^+/− mice after LPS/saline treatment. β3‐Tubulin was used to label neurons and DAPI to stain cell nuclei. Main image scale bars = 50 µm, inset scale bars = 5 µm. D) Summary data showing the percentage of cells containing ASC specks as shown in C) (n = 6). (E) Relative activity of caspase‐1 in hippocampal tissues from WT, Blvra^−/− , or Ugt1a1^+/− mice after LPS/saline treatment (n = 3). F) Experimental design diagram. LPS (0.6 µg g^−1), LPS combined with bilirubin (5 µg g^−1), or normal saline (NS) was injected intraperitoneally for 5 consecutive days starting on day 7. G) Western blotting analysis of NLRP3 in hippocampal tissues from Wnk1^fl/fl,Thy1‐Cre mice after treatment. H) Immunofluorescence staining of ASC speck formation in hippocampal tissues from vehicle‐treated and Wnk1^fl/fl,Thy1‐Cre mice after treatment. β3‐Tubulin was used to label neurons and DAPI to stain cell nuclei. Main image scale bars = 50 µm, inset scale bars = 5 µm. Corresponding images are also provided in Figure S21 (Supporting Information). I) Relative activity of caspase‐1 in hippocampal tissues from Wnk1^fl/fl and Wnk1^fl/fl,Thy1‐Cre mice after treatment (n = 3). Error bars indicate mean ± SD. *p < 0.05, **p < 0.01, ***p < 0.001, and ****p < 0.0001.
# To investigate the role of WNK1 in mediating the inhibitory effect of bilirubin on NLRP3 activation, we used Wnk1^fl/fl,Thy1‐Cre mice which is the hippocampal neuron‐specific Wnk1 knockout mice. Mice were then administered intraperitoneal injections of saline, LPS, or a combination of LPS and bilirubin (Figure 5F). After five days of LPS treatment, we observed increased staining areas for GFAP (an astrocyte marker) and IBA1 (a microglia marker). Furthermore, a portion of the adaptor protein ASC (encoded by PYCARD) co‐localized with IBA1 and GFAP.
# Caspase‐1 activity was measured using a Caspase‐1 Activity Assay Kit (Beyotime Biotechnology, Haimen, China). Briefly, 50 µg of protein from the mouse hippocampal tissue was added to a reaction buffer containing Ac‐YVAD‐ρNA. The absorbance was read at 405 nm using a microplate reader, and caspase‐1 activity was normalized to that of the control.
# UnaG = biological target: UnaG; design: method as in PMID 23768684; settings: modified FABP family member derived from eel; cited from earlier work
# [2] = system: WNK1 phosphorylation at Thr58; test: Western blotting of WNK1 phosphorylation in cochlear nucleus; assay type: cell-based; settings: mouse cochlear nuclei, 30 min
# Procedure: To validate these findings, SH‐SY5Y cells were incubated in a serum‐free medium with bilirubin (6 µM) or an equivalent amount of DMSO as the control, followed by protein denaturation at different temperatures (Figure 1A).
# C57BL/6 mice at postnatal day 10 (P10) were euthanized on ice, and their cochlear nuclei were dissected and incubated in artificial cerebrospinal fluid (ACSF), with or without 3 µM bilirubin, followed by rapid freezing in liquid nitrogen. The ACSF composition was 124 mM NaCl, 5 mM KCl, 1.2 mM KH2PO4, 1.3 mM MgCl2, 2.4 mM CaCl2, 24 mM NaHCO3, and 10 mM glucose (pH 7.4).
# Cells or tissues were lysed by grinding in RIPA buffer (cat. no. PC101; Epizyme Biotech) supplemented with a protease inhibitor cocktail (cat. no. 5872S; Cell Signaling Technology) at 4 °C. The lysate was subsequently centrifuged at 16000 × g for 30 min at 4 °C and the resulting supernatant was collected. The total protein concentration was determined using the Pierce BCA Protein Assay Kit (cat. no. 23 225, Thermo Fisher Scientific). The samples were denatured in a Protein Sample Loading Buffer (cat. no. LT101; Epizyme Biotech) at 95 °C and subjected to SDS‐polyacrylamide gel electrophoresis. Following electrophoresis, the proteins were transferred onto a nitrocellulose membrane (cat. no. HATF00010; Millipore) using a transfer buffer composed of 25 mM Tris, 190 mM glycine, and 20% methanol. […]
# MRGPRs = biological target: MRGPRs; design: method as in PMID 37390966, PMID 30657454; settings: peripheral sensory neurons; cited from earlier work
# [3] = LPS 0.6 µg g−1 with bilirubin 5 µg g−1 i.p., 5 consecutive days, hippocampus
smiles,measurement,setting,value
"C=CC1=C(C)/C(=C/c2[nH]c(Cc3[nH]c(/C=C4\NC(=O)C(C)=C4C=C)c(C)c3CCC(=O)O)c(CCC(=O)O)c2C)NC1=O [bilirubin, Bilirubin]",ASC speck formation,"[1]; LPS 0.6 µg g−1 with bilirubin 5 µg g−1 i.p., 5 consecutive days, hippocampal neurons",reduces
same,Caspase-1 activation,[1]; [3],reduces
same,IL-1β cleavage,[1]; [3],reduces
same,ASC aggregation in microglia or astrocytes,"[1]; LPS with bilirubin i.p., 5 days, IBA1 and GFAP co-localization",does not affect
same,"inhibitory effect on NLRP3 inflammasome assembly, Caspase-1 enzyme activity and IL-1β maturation after deletion of Wnk1","[1]; Wnk1fl/fl,Thy1-Cre mice, LPS stimulation",abolished
same,phosphorylation-mediated activation of the NF-κB p65 subunit,"[1]; upon LPS stimulation, hippocampus",neither bilirubin nor Wnk1 deficiency had a significant effect
same,Kd,UnaG,0.098 nM
same,WNK1 phosphorylation at Thr58 (Thr60 in humans),[2],substantial reduction
same,Kd,MRGPRs,54.4 to 92.9 µM
